How the values were obtained:
[1] = target: T1, Muscarinic acetylcholine receptor M4 (Rattus norvegicus, UniProt P08485); experiment: Positive allosteric modulation of rat M4 receptor expressed in CHO cells co-expressing Gqui5 by calcium mobilization assay; assay type: functional, cell-based
T1 sequence (P08485 whole entry): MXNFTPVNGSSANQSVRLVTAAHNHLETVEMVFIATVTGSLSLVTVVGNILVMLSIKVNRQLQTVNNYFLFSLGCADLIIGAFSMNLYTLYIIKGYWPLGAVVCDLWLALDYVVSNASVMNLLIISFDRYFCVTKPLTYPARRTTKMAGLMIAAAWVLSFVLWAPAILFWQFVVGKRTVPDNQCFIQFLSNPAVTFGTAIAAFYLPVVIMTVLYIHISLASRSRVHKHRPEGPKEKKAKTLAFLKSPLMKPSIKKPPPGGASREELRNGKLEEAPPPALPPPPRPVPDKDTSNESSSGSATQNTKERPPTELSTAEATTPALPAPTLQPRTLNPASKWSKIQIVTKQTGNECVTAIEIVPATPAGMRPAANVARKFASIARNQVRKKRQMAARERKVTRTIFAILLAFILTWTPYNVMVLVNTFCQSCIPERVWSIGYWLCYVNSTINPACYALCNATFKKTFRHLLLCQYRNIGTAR

[2] = Ratio of total drug level in brain to plasma in Sprague-Dawley rat at 0.20 to 0.25 mg/kg, iv administered through cassette dosing after 0.25 hrs; assay type: ADME, organism-based
[3] = Ratio of unbound concentration in brain to plasma in Sprague-Dawley rat at 0.20 to 0.25 mg/kg, iv administered through cassette dosing after 0.25 hrs; assay type: ADME, organism-based
[4] = target: Muscarinic acetylcholine receptor M4 (Homo sapiens) (UniProt P08173); experiment: Positive allosteric modulation of human M4 receptor expressed in CHO cells co-expressing Gqui5 by calcium mobilization assay relative to acetylcholine
[5] = target: T2, Muscarinic acetylcholine receptor M4 (Rattus norvegicus) (UniProt P08485); experiment: Positive allosteric modulation of rat M4 receptor expressed in CHO cells co-expressing Gqui5 by calcium mobilization assay relative to acetylcholine; assay type: functional, cell-based
T2 sequence (whole entry): T1 sequence (P08485 whole entry)

[6] = target: T3, Muscarinic acetylcholine receptor M4 (Homo sapiens, UniProt P08173); experiment: Positive allosteric modulation of human M4 receptor expressed in CHO cells co-expressing Gqui5 by calcium mobilization assay; assay type: functional, cell-based
T3 sequence (P08173 whole entry): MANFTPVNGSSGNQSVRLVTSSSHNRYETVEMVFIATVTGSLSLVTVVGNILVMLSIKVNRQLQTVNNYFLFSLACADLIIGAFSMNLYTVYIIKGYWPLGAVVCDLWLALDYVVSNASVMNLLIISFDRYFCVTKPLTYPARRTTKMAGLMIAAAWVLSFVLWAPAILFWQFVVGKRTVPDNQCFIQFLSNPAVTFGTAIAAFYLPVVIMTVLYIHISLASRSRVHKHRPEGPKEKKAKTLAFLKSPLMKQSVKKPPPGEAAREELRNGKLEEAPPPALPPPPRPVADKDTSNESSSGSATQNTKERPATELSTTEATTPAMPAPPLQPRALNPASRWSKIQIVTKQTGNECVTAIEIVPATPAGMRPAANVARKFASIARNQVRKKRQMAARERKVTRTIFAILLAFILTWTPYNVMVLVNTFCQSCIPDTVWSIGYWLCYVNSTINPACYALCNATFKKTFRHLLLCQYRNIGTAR

[7] = target: T4, Muscarinic acetylcholine receptor M4 (Homo sapiens) (UniProt P08173); experiment: Positive allosteric modulation of human M4 receptor expressed in CHO cells co-expressing Gqui5 by calcium mobilization assay relative to acetylcholine; assay type: functional, cell-based
T4 sequence (whole entry): T3 sequence (P08173 whole entry)

[8] = Fraction unbound in rat; assay type: ADME
[9] = Fraction unbound in human; assay type: ADME
[10] = Ratio of total drug level in brain to plasma (unknown origin); assay type: ADME, cell-free; details: brain and plasma
[11] = target: T3, Muscarinic acetylcholine receptor M4; experiment: Positive allosteric modulation of human M4 receptor
[12] = target: T4, Muscarinic acetylcholine receptor M4 (Homo sapiens); experiment: Positive allosteric modulation of human M4 receptor relative to acetylcholine

| Compound | EC50 [1] [µM] | Kp [2] | K(p,uu,brain) [3] | Emax [4] [%] | also measured |
| --- | --- | --- | --- | --- | --- |
| Cc1nnc2sc(C(=O)NCc3ccc(S(=O)(=O)C4CC4)cc3)c(N)c2c1C | 0.0224 | 0.05 | 0.29 | 67.1 | – |
| Cc1nnc2sc(C(=O)NCc3cccc(S(C)(=O)=O)c3)c(N)c2c1C | 0.417 | – | – | 74.6 | – |
| Cc1nnc2sc(C(=O)NCc3ccc(S(C)(=O)=O)c(F)c3)c(N)c2c1C | 0.0577 | 0.51 | 2.8 | 69.2 | – |
| Cc1nnc2sc(C(=O)NCc3ccc(S(=O)(=O)C(F)F)c(F)c3)c(N)c2c1C | 0.0234 | – | – | 76.7 | Kp ([2]; BLD = below limit of detection): Bld; K(p,uu,brain) ([3]; BLD = below limit of detection): Bld |
| Cc1nnc2sc(C(=O)NCc3ccc(S(C)(=O)=O)cc3)c(N)c2c1C | 0.0513 | 0.04 | 0.14 | – | Emax [5]: 72.6%; EC50 ([6]; read-out: EC50): 0.363 µM; Emax [7]: 73.8% |
| COc1ccc(CNC(=O)c2sc3nc(C)cc(C)c3c2N)cc1 | – | – | – | – | fraction unbound [8]: 0.015; fraction unbound [9]: 0.004; Kp [10]: 0.38 |
| Cc1nnc2sc(C(=O)NCc3ccc(S(=O)(=O)CF)cc3)c(N)c2c1C | 0.0219 | – | – | 62.5 | Kp ([2]; BLD = below limit of detection): Bld; K(p,uu,brain) ([3]; BLD = below limit of detection): Bld; EC50 ([6]; read-out: pEC50 (converted)): 0.209 µM; Emax [7]: 62.5% |
| COc1ccc(CNC(=O)c2sc3nnc(C)c(C)c3c2N)cc1 | – | – | – | – | EC50 [11]: 0.15 µM; Emax [12]: 83%; fraction unbound [8]: 0.022; fraction unbound [9]: 0.035; Kp [10]: 0.28 |
| Cc1nnc2sc(C(=O)NCc3ccc(S(=O)(=O)C(C)C)cc3)c(N)c2c1C | 0.0479 | 0.07 | 0.67 | 76.8 | – |
| Cc1nnc2sc(C(=O)NCc3ccc(S(=O)(=O)C(C)(C)C)cc3)c(N)c2c1C | 0.0447 | 0.11 | 0.34 | 72.1 | – |
| CSc1ccc(CNC(=O)c2sc3nnc(C)c(C)c3c2N)cc1 | 0.0112 | 0.13 | 0.48 | – | Emax [5]: 75.6%; EC50 ([6]; read-out: EC50): 0.0602 µM; Emax [7]: 71.9% |
| Cc1nnc2sc(C(=O)NCc3ccc([S+](C)[O-])cc3)c(N)c2c1C (stereo not given) | 0.139 | – | – | 74.2 | – |

— ChEMBL document CHEMBL3872258, “Challenges in the development of an M4 PAM in vivo tool compound: The discovery of VU0467154 and unexpected DMPK profiles of close analogs” (Bioorg Med Chem Lett, 2017)
